# Measured values: US5744492A, “Method for inhibiting angiogenesis” (United States of America, priority 1994, dated 1998)
# Experiments:
# [1] = test system: HUVECs; experiment: HUVEC proliferation (crystal violet), 10% serum with ECGS; type: cell-based, human; conditions: for IC50: Homo sapiens, HUVEC, 10% serum with ECGS, n=3
# Method: (§1) Human umbilical vein endothelial cells (H 930) were generously supplied by Dr. Tom Maciag, American Red Cross (Gaithersburg, Md., USA) and were used between passages 9 and 14 to avoid senescence. HUVECs were grown on fibronectin-coated tissue culture plastic (200 μg/150 mm dish) in complete medium (Medium 199 (M-199) containing 5 U/mL preservative-free heparin, 25.5 μg/mL ECGS, 10% fetal bovine serum and 100 U/mL penicillin, 100 μg/mL streptomycin, and 0.25 μg/mL fungizone).
# The effect of compound 1 on HUVEC proliferation was examined over a 5 day period of culture. Cell monolayers were incubated with increasing concentrations of compound 1 and evaluated incrementally for growth inhibition.
# Growth inhibition of HUVECs by compound 1 was measured by crystal violet nuclear stain. Briefly, 50,000 cells were seeded per well in 24 well plates using complete medium in the presence of increasing concentrations of compound 1 (0.01-10 μM) or DMS0 vehicle control (0.1%) and cultures were incubated for 24-120 hours. After incubation, cells were washed carefully with Dulbecco's phosphate-buffered saline (DPBS), fixed and stained with 0.5% crystal violet in 20% methanol. Excess stain was removed with water, the cell monolayers were air-dried, and then bound stain was eluted with a 1:1 solution of 0.1N sodium citrate (pH 4.2): 100% ethanol. Optical density of the eluted samples was determined at 540 nm and the results were expressed as percent of DMSO control cell growth. Data are expressed as percentage of control value and are presented as mean±SEM (n=3).
# [2] = test system: HUVECs; experiment: HUVEC motility (modified Boyden chamber chemotaxis); type: cell-based, human; conditions: 18 hr preincubation
# Method: as §1
# A modified Boyden chamber system was used to determine whether compound 1 could modulate the chemotactic stimulation of endothelial cells by fibronectin, laminin, type IV collagen or thrombospondin. The particular system used has been described for tumor cell motility. See, Minniti, et al., J. Biol. Chem. 267:9000-9004 (1992). Modifications were made as to cell number, membrane pore size, and time of incubation were tested to determine optimal conditions for the HUVECs.
# HUVECs were pretreated as described above for adhesion and resuspended at 2×10^6 cells/mL in M-199 containing 0.1% bovine serum albumin. Cells were seeded in the upper compartment of the chamber separated from the lower compartment by a gelatin-coated Nucleopore filter with 8μ pores. Laminin (100 μg/mL), fibronectin (30 μg/mL), type IV collagen (100 μg/mL) or thrombospondin (20 μg/mL) were diluted from stock solutions into control medium (M-199 plus 0.1% BSA) and were used as chemoattractants in the lower chamber. HUVECs were incubated with DMSO control (0.1%) or compound 1 (0.1-10 μM) for 18 hr prior to the motility assay. Compound 1 and DMSO were maintained with the cells throughout the experiment. Assays were incubated at 37° C. for 2 hours after which the filters were removed, fixed, and stained. Cell migration was quantited by counting five high power fields in triplicate pellets of migrated cells. Results are expressed as percentage of control cell migration (x±SEM, n=3).
# [3] = test system: MMP-2; experiment: Gelatin zymography of HUVEC conditioned medium, MMP-2 gelatinase activity (basal); type: cell-based, human; conditions: 24 hr
# Method: as §1
# Angiogenesis is characterized by a local degradation of subendothelial basement membrane by endothelial cell-secreted gelatinases. Aliquots of concentrated HUVEC conditioned medium from compound 1-treated and control cells were subjected to gelatin zymography, in order to test the effect of compound 1 on metalloproteinase production.
# Gelatin zymography was carried out as described in Brown, et al., Cancer Research 50:6184-6191 (1990). HUVECs were seeded at 1.2×10^5 /cm^2 in 25 cm^2 fibronectin-coated tissue culture flasks in complete medium containing increasing concentrations of compound 1 (0.1-10 μM) or DMSO vehicle control. After 18 hr of culture, the complete medium was removed and the cells were washed once with serum-free M-199 supplemented with 5 μg/mL bovine insulin, 5 μg/mL human transferrin and 5 ng/mL sodium selenite (ITS). […]
# [4] = test system: chick chorioallantoic membrane; experiment: Chick chorioallantoic membrane (CAM) angiogenesis assay; type: in vivo; conditions: 48 hr
# Method: The chick chorioallantoic or yolk sac membrane (CAM) assays for angiogenesis are important in vivo models of microvessel formation. […] Briefly, fertilized chick embryos with the yolk intact were removed from their shells on day 3 of development and incubated at 37° C.
smiles,measurement,setting,value
"NC(=O)c1nnn(Cc2cc(Cl)c(C(=O)c3ccc(Cl)cc3)c(Cl)c2)c1N [Compound 1, 5-amino-1-(4-(4-chlorobenzoyl)-3,5-dichlorobenzyl)1,2,3-triazole-4-carboxamide]",inhibition of endothelial cell proliferation (in words),"[1]; 0.01-10 μM, 24, 72 and 120 hrs",dose-dependent but not time-dependent inhibition
same,IC50,"[1]; 24 h, 1 day of culture",1310 ± 30 nM
same,IC50,"[1]; 72 h, 3 days of culture",2140 ± 30 nM
same,IC50,"[1]; 120 h, 5 days of culture",2080 ± 10 nM
same,inhibition of HUVEC motility towards type IV collagen (in words),"[2]; 1 μM, P2, 0.018",statistically significant dose-dependent inhibition
same,inhibition of HUVEC motility towards laminin (in words),"[2]; 1 μM, P2<0.009",statistically significant dose-dependent inhibition
same,"inhibition of HUVEC motility towards all attractants (fibronectin, laminin, type IV collagen and thrombospondin) (in words)","[2]; 10 μM, p2<0.001",statistically significant dose-dependent inhibition
same,inhibition of proMMP-2 and its activated form (in words),[3]; 0.1-10 μM,dose-dependent inhibition
same,inhibition at 10 µM,"[3]; Homo sapiens, HUVEC, 10.0 μM, read-out: decrease in MMP-2 (densitometric analysis)",50%
same,% Inhibition (capillary formation in vivo),[4]; 10 μM,55%
same,Eggs with avascular zones/total,[4]; 10 μM,19/34
same,embryos with large avascular zone,[4]; 10 μM,55%
same,% Inhibition (capillary formation in vivo),[4]; 20 μM,67%
same,Eggs with avascular zones/total,[4]; 20 μM,20/30
same,embryos with large avascular zone,[4]; 20 μM,67%
same,angiogenesis inhibitory effect (in words),[4]; 10 or 20 μM,dose-dependent
